Measurements as given in patent publication US10670605B2, “Cysteine reactive probes and uses thereof” (The Scripps Research Institute, priority 2015, dated 2020).
Counter-ions that a name gives are not always drawn.

Assays:
[1] = tested on: splenic T cells from C57BL/6 mice; assay: Activation of primary mouse T cells (CD25, CD69); type: cell-based; settings: C57BL/6, 8 h
Procedure: Spleens were harvested from female mice, perfused with collagenase, and incubated at 37° C. with 5% CO2 for 30 min. After this time, the spleens were homogenized. Cells that passed through a 100 μm cell strainer were collected and washed with RPMI. T cells were isolated from the splenocytes using the EasySepTM Mouse T cell Isolation Kit (19851; […]) according to manufacturer's instructions. 96-well plates were coated with anti-CD3 (1:200; BioXcell) and anti-CD28 (1:500; 302933; BioLegend) in PBS (100 μL/well) overnight at 4° C. The plates were then washed twice with PBS and to each well was added 500,000 primary T cells in 100 μL of RPMI supplemented with 10% FBS, glutamine, and Pen-Strep. Cells were then treated with 100 μL of media containing compound at the indicated concentrations (final well volume of 200 μL). Cells were left at 37° C. in a 5% CO2 incubator for the indicated periods of time and harvested by centrifugation (500 g, 8 min, 4° C.), followed by washing with PBS. […] Data was then analyzed with FlowJo software (Treestar Inc.). […]

[2] = tested on: Cys residues in mouse T cells; assay: isoTOP-ABPP of DMF-treated mouse T cells; type: cell-based; settings: 50 μM, 4 h
Procedure: Spleens were harvested from female mice, perfused with collagenase, and incubated at 37° C. with 5% CO2 for 30 min. After this time, the spleens were homogenized. Cells that passed through a 100 μm cell strainer were collected and washed with RPMI. T cells were isolated from the splenocytes using the EasySep™ Mouse T cell Isolation Kit (19851; […]) according to manufacturer's instructions. Cells were lysed by sonication and diluted to a concentration of 2 mg protein/mL. […] Site-specific engagement of electrophilic compounds was assessed by blockade of IA-alkyne probe labeling. […] Overlapping peptides with the same labeled cysteine (for example, same local sequence around the labeled cysteines but different charge states, MudPIT segment numbers, or tryptic termini) were grouped together, and the median ratio from each group was recorded as the R value of the peptide for that run.

MKI67 C903 (P46013) = MKI67 C903 (P46013) (Homo sapiens, UniProt P46013); assay: Competitive isoTOP-ABPP in situ; type: cell-based; settings: fragment 2 at 200 μM, MDA-MB-231 cells
RRAGC C377 (Q9HB90) = RRAGC C377 (Q9HB90) (Homo sapiens, UniProt Q9HB90); assay: Competitive isoTOP-ABPP in situ; type: cell-based; settings: fragment 2 at 200 μM, MDA-MB-231 cells
[3] = tested on: cysteines in MDA-MB-231 and Ramos cell proteomes; assay: Competitive isoTOP-ABPP in cell lysates (in vitro): proteomic reactivity / liganded cysteine rate; type: binding, human; settings: fragment 500 μM; % of quantified cysteines with R ≥4
Procedure: All cell lines were obtained from ATCC, were used with a low passage number and were grown at 37° C. with 5% CO2. MDA-MB-231 cells and HEK-293T cells were grown in DMEM supplemented with 10% fetal bovine serum, penicillin, streptomycin and glutamine. Jurkat, Ramos and MUM2C cells were grown in RPMI-1640 medium supplemented with 10% fetal bovine serum, penicillin and streptomycin. For in vitro labeling, cells were grown to 100% confluence for MDA-MB-231 cells or until cell density reached 1.5 million cells/mL for Ramos and Jurkat cells. […] Cell pellets were lysed by sonication and fractionated (100,000 g, 45 min) to yield soluble and membrane fractions, which were then adjusted to a final protein concentration of 1.5 mg/mL for proteomics experiments and 1 mg/mL for gel-based ABPP experiments. The soluble lysate was prepared fresh from frozen pellets directly before each experiment. Protein concentration was determined using the Bio-Rad DC™ protein assay kit.
For each sample, 100 μL of streptavidin-agarose beads slurry (Pierce) was washed in 10 mL PBS and then resuspended in 5 mL PBS. The SDS-solubilized proteins were added to the suspension of streptavidin-agarose beads and the bead mixture was rotated for 3 h at ambient temperature. After incubation, the beads were pelleted by centrifugation (1,400 g, 3 min) and were washed (2×10 mL PBS and 2×10 mL water).
The beads were transferred to eppendorf tubes with 1 mL PBS, centrifuged (1,400 g, 3 min), and resuspended in PBS containing 6 M urea (500 μL). To this was added 10 mM DTT (25 μL of a 200 mM stock in water) and the beads were incubated at 65° C. for 15 mins. 20 mM iodoacetamide (25 μL of a 400 mM stock in water) was then added and allowed to react at 37° C. for 30 mins with shaking. The bead mixture was diluted with 900 μL PBS, pelleted by centrifugation (1,400 g, 3 min), and resuspended in 200 μL PBS. To this was added 1 mM CaCl2 ([…]) and trypsin (2 μg, Promega, sequencing grade) and the digestion was allowed to proceed overnight at 37° C. with shaking. The beads were separated from the digest with Micro Bio-Spin columns (Bio-Rad) by centrifugation (1,000 g, 1 min), washed (2×1 mL PBS and 2×1 mL water) and then transferred to fresh eppendorfs with 1 mL water. The washed beads were washed once further in 140 μL TEV buffer (50 mM Tris, pH 8, 0.5 mM EDTA, 1 mM DTT) and then resuspended in 140 μL TEV buffer. 5 μL TEV protease (80 μM) was added and the reactions were rotated overnight at 29° C. The TEV digest was separated from the beads with Micro Bio-Spin columns by centrifugation (1,400 g, 3 min) and the beads were washed once with water (100 μL). The samples were then acidified to a final concentration of 5% (v/v) formic acid and stored at −80° C. prior to analysis.

CDKN3 C39 (Q16667) = CDKN3 C39 (Q16667) (Homo sapiens, UniProt Q16667); assay: Competitive isoTOP-ABPP in situ; type: cell-based; settings: fragment 4 at 100 μM, MDA-MB-231 cells
Sequence of CDKN3 C39 (Q16667) (Q16667 whole entry, the tested form may be a part): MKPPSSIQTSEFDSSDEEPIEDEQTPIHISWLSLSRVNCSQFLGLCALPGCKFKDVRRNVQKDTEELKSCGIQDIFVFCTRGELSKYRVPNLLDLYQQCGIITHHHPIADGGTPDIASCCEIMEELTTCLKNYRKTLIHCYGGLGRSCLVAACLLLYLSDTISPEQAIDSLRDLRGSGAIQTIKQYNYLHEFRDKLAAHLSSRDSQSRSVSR

Sequence of MKI67 C903 (P46013) (P46013 whole entry, the tested form may be a part): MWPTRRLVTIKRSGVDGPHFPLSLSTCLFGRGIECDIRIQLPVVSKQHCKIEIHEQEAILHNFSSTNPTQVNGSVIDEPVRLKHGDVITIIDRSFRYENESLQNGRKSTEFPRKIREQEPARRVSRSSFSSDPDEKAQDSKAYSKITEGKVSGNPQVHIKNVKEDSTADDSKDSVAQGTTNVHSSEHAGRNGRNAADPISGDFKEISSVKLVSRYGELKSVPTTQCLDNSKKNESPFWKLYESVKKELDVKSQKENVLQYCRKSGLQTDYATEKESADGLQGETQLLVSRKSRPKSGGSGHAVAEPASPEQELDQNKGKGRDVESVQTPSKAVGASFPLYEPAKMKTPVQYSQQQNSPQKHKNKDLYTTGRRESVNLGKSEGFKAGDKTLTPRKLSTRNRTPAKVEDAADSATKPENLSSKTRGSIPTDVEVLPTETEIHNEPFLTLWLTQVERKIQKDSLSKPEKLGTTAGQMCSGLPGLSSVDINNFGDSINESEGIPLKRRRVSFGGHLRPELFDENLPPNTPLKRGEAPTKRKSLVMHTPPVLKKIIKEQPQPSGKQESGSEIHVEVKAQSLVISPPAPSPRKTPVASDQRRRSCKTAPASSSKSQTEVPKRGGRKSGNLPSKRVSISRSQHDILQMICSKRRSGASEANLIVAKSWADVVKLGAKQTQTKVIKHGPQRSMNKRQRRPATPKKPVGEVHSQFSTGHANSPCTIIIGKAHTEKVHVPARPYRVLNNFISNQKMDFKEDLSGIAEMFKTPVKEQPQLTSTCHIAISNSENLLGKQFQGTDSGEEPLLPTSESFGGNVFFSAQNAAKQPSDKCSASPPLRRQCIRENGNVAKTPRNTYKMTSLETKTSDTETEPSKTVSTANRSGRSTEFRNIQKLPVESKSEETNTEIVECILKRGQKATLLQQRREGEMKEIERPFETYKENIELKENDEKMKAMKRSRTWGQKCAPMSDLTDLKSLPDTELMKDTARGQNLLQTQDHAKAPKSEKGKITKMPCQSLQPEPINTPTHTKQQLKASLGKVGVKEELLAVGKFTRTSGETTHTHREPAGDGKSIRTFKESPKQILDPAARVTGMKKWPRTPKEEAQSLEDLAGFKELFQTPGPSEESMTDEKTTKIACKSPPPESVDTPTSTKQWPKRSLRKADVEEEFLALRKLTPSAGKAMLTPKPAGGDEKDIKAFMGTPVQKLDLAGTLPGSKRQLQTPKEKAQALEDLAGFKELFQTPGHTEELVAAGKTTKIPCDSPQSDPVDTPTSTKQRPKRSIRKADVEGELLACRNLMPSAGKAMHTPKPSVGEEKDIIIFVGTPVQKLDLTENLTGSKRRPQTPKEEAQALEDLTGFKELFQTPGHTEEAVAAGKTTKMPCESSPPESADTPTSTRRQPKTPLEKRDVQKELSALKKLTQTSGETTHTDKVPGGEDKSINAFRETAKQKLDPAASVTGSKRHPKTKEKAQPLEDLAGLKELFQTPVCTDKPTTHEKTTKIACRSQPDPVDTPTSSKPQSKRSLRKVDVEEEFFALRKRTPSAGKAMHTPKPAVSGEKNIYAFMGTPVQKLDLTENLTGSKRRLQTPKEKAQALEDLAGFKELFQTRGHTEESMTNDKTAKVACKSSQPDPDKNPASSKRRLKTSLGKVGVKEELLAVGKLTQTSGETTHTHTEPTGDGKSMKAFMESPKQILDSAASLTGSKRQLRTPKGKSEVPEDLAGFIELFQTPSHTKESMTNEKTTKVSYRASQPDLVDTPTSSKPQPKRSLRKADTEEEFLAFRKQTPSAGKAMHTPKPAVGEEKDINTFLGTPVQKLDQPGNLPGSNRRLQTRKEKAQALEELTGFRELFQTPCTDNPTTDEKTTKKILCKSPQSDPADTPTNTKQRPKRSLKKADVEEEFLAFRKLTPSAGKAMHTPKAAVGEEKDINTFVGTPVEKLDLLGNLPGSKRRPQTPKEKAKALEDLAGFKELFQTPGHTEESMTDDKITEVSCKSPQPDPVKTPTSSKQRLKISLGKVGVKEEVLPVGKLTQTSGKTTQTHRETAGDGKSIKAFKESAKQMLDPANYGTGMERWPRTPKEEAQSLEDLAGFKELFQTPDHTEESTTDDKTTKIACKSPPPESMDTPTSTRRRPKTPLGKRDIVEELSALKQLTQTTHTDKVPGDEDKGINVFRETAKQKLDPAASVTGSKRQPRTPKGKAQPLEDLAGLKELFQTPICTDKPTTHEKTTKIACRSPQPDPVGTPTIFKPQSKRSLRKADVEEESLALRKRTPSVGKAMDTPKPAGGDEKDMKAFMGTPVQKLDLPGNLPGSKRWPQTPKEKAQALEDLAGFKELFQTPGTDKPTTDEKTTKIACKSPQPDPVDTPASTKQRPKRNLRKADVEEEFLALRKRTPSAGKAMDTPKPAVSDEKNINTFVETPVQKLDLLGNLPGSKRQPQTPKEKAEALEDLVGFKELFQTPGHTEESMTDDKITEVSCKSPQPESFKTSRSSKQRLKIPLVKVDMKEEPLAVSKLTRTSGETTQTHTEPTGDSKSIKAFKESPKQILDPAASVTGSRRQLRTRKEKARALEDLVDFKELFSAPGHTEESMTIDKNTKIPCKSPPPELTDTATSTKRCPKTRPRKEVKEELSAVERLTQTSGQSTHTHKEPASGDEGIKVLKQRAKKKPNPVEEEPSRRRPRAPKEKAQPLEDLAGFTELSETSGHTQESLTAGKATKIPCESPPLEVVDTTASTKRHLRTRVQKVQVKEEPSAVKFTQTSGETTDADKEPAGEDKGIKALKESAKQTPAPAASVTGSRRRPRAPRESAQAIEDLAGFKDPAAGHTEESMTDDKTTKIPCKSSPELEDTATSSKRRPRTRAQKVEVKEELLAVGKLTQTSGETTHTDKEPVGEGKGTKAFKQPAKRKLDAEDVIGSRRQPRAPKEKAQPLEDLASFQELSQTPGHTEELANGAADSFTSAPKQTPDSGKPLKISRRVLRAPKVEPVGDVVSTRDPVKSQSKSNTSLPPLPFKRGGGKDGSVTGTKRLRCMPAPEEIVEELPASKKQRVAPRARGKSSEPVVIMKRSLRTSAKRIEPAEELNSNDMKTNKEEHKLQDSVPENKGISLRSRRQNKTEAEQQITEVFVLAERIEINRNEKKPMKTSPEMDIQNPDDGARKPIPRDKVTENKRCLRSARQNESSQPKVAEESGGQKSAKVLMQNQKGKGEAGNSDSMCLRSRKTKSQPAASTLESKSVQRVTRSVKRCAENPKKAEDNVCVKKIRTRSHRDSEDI
Sequence of RRAGC C377 (Q9HB90) (Q9HB90 2-399 limits assumed): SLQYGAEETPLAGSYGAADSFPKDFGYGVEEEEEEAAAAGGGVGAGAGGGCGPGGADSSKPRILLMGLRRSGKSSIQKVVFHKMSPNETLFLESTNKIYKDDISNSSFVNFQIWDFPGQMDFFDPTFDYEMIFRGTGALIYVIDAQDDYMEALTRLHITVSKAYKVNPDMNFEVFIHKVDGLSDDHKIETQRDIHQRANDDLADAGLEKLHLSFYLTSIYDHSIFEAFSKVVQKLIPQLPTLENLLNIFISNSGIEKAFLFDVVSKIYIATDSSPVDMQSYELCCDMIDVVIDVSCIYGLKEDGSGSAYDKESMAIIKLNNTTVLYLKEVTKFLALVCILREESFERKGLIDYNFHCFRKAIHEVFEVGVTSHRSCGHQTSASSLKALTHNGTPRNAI
Sequence of RRAGC C377 (Q9HB90) (Q7L523 whole entry partner, the tested form may be a part): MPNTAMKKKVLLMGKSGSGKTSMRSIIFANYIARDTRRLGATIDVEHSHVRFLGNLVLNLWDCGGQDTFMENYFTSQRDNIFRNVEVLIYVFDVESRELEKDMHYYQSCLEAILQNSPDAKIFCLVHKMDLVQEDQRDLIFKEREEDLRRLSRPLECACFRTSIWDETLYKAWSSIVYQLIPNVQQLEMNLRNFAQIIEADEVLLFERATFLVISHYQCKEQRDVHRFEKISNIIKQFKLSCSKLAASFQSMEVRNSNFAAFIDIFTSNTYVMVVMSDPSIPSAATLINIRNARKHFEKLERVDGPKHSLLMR

## COC(=O)/C=C/C(=O)OC [DMF, dimethyl fumarate]
[1]
  activation of primary mouse splenic T cells: suppressed
[2]
  fraction of conserved, quantified DMF-sensitive Cys also blocked (R >4) in mouse T cells: > 80%

## COc1ccc2c(c1)CCCN2C(=O)CCl [compound 2]
MKI67 C903 (P46013)
  isoTOP-ABPP reactivity profile (ratio) 2_200 μM_in-situ_231: 20.0
RRAGC C377 (Q9HB90)
  isoTOP-ABPP reactivity profile (ratio) 2_200 μM_in-situ_231: 3.3

## O=C(CCl)Nc1cc(C(F)(F)F)cc(C(F)(F)F)c1 [compound 3]
[3]
  proteomic reactivity value (liganded cysteine rate): 15%

## COc1ccc(C2CC(c3cccs3)=NN2C(=O)CCl)cc1 (stereo not drawn) [compound 4]
CDKN3 C39 (Q16667)
  isoTOP-ABPP reactivity profile (ratio) 4_100 μM_in-situ_231: 0.6
